Test results: article PMC13129536 (The Journal of Biological Chemistry, 2026)

Tested on: Mtb (mc^26030)
Type: cell-based, Mycobacterium tuberculosis
Conditions: combined with meropenem

SMILES	FICA (apparent FIC)
c1ccc(-c2nc3cc(Cc4ccc5[nH]c(-c6ccccn6)nc5c4)ccc3[nH]2)nc1 [Compound F0850-5995]	greater than 5.0
Cc1ccc(C)c(Nc2nc(NCc3ccccc3)c3ccccc3n2)c1 [Compound F0909-0124]	greater than 5.0
